The record followed here is PubChem BioAssay (NCI).

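Method: 48-hour compound exposure of cells in 96-well plates, five concentrations, linear interpolation of endpoints. At the GI50, growth is halved. TGI denotes the concentration required for complete inhibition of growth.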

Some test systems named below: T-47D breast; HCT-15 colon; SNB-19 CNS; NCI-H460 lung; SF-268 CNS; M14 melanoma; HCC-2998 colon; NCI-H226 lung.
Assay in all cases: growth of human tumour cells (NCI), 48 h

With `CSc1nc(N)c2c(n1)NC(c1ccccc1)C1CCc3ccccc3C1=N2` (configuration not stated), the GI50 with T-47D breast was 2.27 µM; with HCT-15 colon, 7.61 µM; in the test with SNB-19 CNS it was greater than 100 µM; in the test on NCI-H460 lung, 8.29 µM; in the test on SF-268 CNS it was greater than 100 µM; with M14 melanoma, 11.9 µM. Also, the GI50 in the test on HCC-2998 colon is greater than 100 µM; in the test with NCI-H226 lung it was 42.3 µM. The TGI in the test with T-47D breast was 15.7 µM; with HCT-15 colon, greater than 100 µM; with SNB-19 CNS, greater than 100 µM; with NCI-H460 lung, greater than 100 µM; in the test on SF-268 CNS it was greater than 100 µM; in the test on M14 melanoma it was greater than 100 µM. Moreover, the TGI with HCC-2998 colon and in the test with NCI-H226 lung was greater than 100 µM throughout.
Take `CC1(C)N=C(N)N=C(N)N1c1ccc(Cl)c(Cl)c1`: the GI50 in the test on T-47D breast is greater than 45.8 µM; in the test on HCT-15 colon, 1.37 µM; in the test on SNB-19 CNS, 1 µM; in the test with NCI-H460 lung it was 0.0919 µM; in the test with SF-268 CNS, 0.0566 µM; in the test on M14 melanoma, 0.441 µM. The GI50 in the test on HCC-2998 colon was 0.508 µM. Besides, the TGI in the test on T-47D breast, with HCT-15 colon, in the test on SNB-19 CNS, in the test with NCI-H460 lung, in the test on SF-268 CNS and with M14 melanoma was greater than 100 µM throughout. Also, the TGI in the test on HCC-2998 colon is greater than 40.7 µM; in the test on NCI-H226 lung it was greater than 100 µM.
In the case of `CNC(=O)c1cc2c(Oc3ccc(NC(=S)NC(=O)Cc4ccccc4)cc3F)ccnc2cc1OC`, the GI50 in the test on T-47D breast was 2.8 µM; in the test on HCT-15 colon, 4.7 µM; in the test with SNB-19 CNS, greater than 100 µM; in the test on NCI-H460 lung it was greater than 100 µM; in the test on SF-268 CNS, 4.51 µM; with M14 melanoma it was greater than 24.3 µM. The GI50 with HCC-2998 colon was greater than 100 µM; in the test on NCI-H226 lung, 5.36 µM. The TGI with T-47D breast, in the test on HCT-15 colon, with SNB-19 CNS, in the test on NCI-H460 lung, in the test with SF-268 CNS and with M14 melanoma was greater than 100 µM each time. Moreover, the TGI in the test with HCC-2998 colon and with NCI-H226 lung was greater than 100 µM in each case.
`Cn1c2ccccc2c2nnc(NNCc3ccccn3)nc21`: the GI50 is 0.369 µM with T-47D breast; 0.328 µM with HCT-15 colon; 0.597 µM in the test with SNB-19 CNS; 0.3 µM in the test with NCI-H460 lung; 0.294 µM with SF-268 CNS; 0.246 µM in the test on M14 melanoma. Besides, the GI50 was 0.321 µM with HCC-2998 colon and 0.324 µM with NCI-H226 lung. For the same molecule, the TGI with T-47D breast came out at 8.98 µM; with HCT-15 colon, 17.9 µM; in the test on SNB-19 CNS it was 17.4 µM; in the test with NCI-H460 lung it was 4.03 µM; in the test on SF-268 CNS, 6.5 µM; in the test with M14 melanoma it was 0.738 µM. For the same molecule, the TGI with HCC-2998 colon amounted to 12.7 µM; in the test with NCI-H226 lung it was 2.63 µM.
For `O=Nc1c(O)c2ccccc2c2ccccc12`, the GI50 in the test with T-47D breast is 1.32 µM; in the test with HCT-15 colon, 0.398 µM; in the test on SNB-19 CNS, 1.13 µM; in the test on NCI-H460 lung, 1.06 µM; in the test with SF-268 CNS, 1.43 µM; with M14 melanoma, 0.446 µM. Further, the GI50 is 1.91 µM with HCC-2998 colon and 2.03 µM in the test with NCI-H226 lung. For the same molecule, the TGI in the test on T-47D breast was determined as 3.57 µM; with HCT-15 colon, 2.4 µM; in the test on SNB-19 CNS, 2.55 µM; with NCI-H460 lung, 2.49 µM; with SF-268 CNS it was 3.75 µM; in the test with M14 melanoma, 1.6 µM. Besides, the TGI amounted to 3.7 µM in the test on HCC-2998 colon and 3.83 µM in the test with NCI-H226 lung.
On to `CCN(Cc1cccc(F)c1F)c1ccc(CO)c(Cl)c1`, for which the GI50 in the test on T-47D breast was 0.07 µM; in the test on HCT-15 colon, 12.4 µM; in the test with SNB-19 CNS it was 17 µM; in the test with NCI-H460 lung, 0.176 µM; in the test with SF-268 CNS, 19.3 µM; in the test with M14 melanoma it was 17.9 µM. Moreover, the GI50 was 5.09 µM with HCC-2998 colon and 0.0318 µM in the test on NCI-H226 lung. Further, the TGI in the test on T-47D breast was 0.414 µM; with HCT-15 colon, 36.2 µM; in the test on SNB-19 CNS it was greater than 58.6 µM; with NCI-H460 lung, 11 µM; in the test on SF-268 CNS it was 42.7 µM; in the test with M14 melanoma it was 35.1 µM. The figures for the TGI in the test with HCC-2998 colon and with NCI-H226 lung were 24.6 µM and 0.141 µM, respectively.
For `Oc1ccccc1C=Nc1ccccc1N=Cc1ccccc1O.[Cu+2]`, the GI50 in the test on T-47D breast was 1.68 µM; in the test on HCT-15 colon, 5.81 µM; in the test with SNB-19 CNS, 13 µM; in the test on NCI-H460 lung, 12.3 µM; in the test with SF-268 CNS it was 4.35 µM; in the test with M14 melanoma, 4.33 µM. The GI50 in the test on HCC-2998 colon is 7.95 µM; in the test on NCI-H226 lung, 3.72 µM. Besides, the TGI in the test on T-47D breast is 5.4 µM; with HCT-15 colon, 24.8 µM; with SNB-19 CNS it was 26.3 µM; in the test on NCI-H460 lung, 30 µM; in the test with SF-268 CNS, 17.5 µM; with M14 melanoma, 16.4 µM. Also, the TGI in the test with HCC-2998 colon came out at 20.9 µM; in the test with NCI-H226 lung, 16.3 µM.
For `Cc1cc(S(N)(=O)=O)c(S/C(=N\Nc2ccc([N+](=O)[O-])cc2)c2ccc3ccccc3c2)cc1Cl`, the TGI is 83.7 µM in the test with T-47D breast; 41 µM in the test on HCT-15 colon; greater than 100 µM in the test on SNB-19 CNS; greater than 100 µM in the test with NCI-H460 lung; 44.4 µM in the test on SF-268 CNS; greater than 100 µM in the test with M14 melanoma. For the same molecule, the TGI is 30.1 µM with HCC-2998 colon and 38.3 µM in the test on NCI-H226 lung. The GI50 with HCT-15 colon was 20.1 µM; in the test with SNB-19 CNS, 67.5 µM; in the test with NCI-H460 lung, 18.5 µM; in the test on SF-268 CNS, 10.1 µM; with M14 melanoma it was 44.1 µM; in the test on HCC-2998 colon it was 14.7 µM. The GI50 in the test with NCI-H226 lung was 18.4 µM.
For the molecule `O=C(Nc1cccc(-n2cc(-c3ccncc3)c(-c3ccc(O)c(Cl)c3)n2)c1)c1ccc(Cl)c(Cl)c1`, the GI50 with T-47D breast was 5.36 µM; in the test with HCT-15 colon, 3.2 µM; in the test on SNB-19 CNS, 29.7 µM; with NCI-H460 lung it was 3.91 µM; in the test on SF-268 CNS it was 36.9 µM; in the test with M14 melanoma, 5.26 µM. Also, the GI50 is 40.6 µM in the test on HCC-2998 colon and 8.06 µM in the test with NCI-H226 lung. In addition, the TGI is greater than 100 µM in the test on T-47D breast; greater than 100 µM in the test on HCT-15 colon; greater than 100 µM in the test on SNB-19 CNS; greater than 100 µM in the test with NCI-H460 lung; greater than 100 µM in the test on SF-268 CNS; 54.6 µM in the test with M14 melanoma. Besides, the TGI in the test on HCC-2998 colon and in the test with NCI-H226 lung was greater than 100 µM throughout.
